Several values for one entry are separate records, joined by “and”; a condition that tells them apart may be missing. Equal entries are not always repeated.
Experiments:
[1] = tested on: mouse intralobular bronchi; experiment: Wire myography: effect of calcilytic on ACh-precontracted mouse intralobular bronchi; conditions: 300 nM or 3 micromolar; ACh 1 micromolar precontraction; WT mice
Method: Second/third order intralobular bronchi were dissected from the lung left lobe of WT or CaSR KO mice, mounted in small vessel myograph. Bronchi were gradually stretched to reach 2 mN of passive tension. After 30 min of equilibration time, the reactivity of the bronchi was tested by addition of 40 mM KCl to the bath. […] Data are shown as mean±SEM percentage change from baseline. […] Bronchi were left to settle at 37° C. for 30 min, then gradually stretched to reach 2 mN of passive tension. After 30 min of equilibration time, the reactivity of the bronchi was tested by addition of 40 mM KCl to the bath.

BalbC mice = experiment: Inflammatory cell infiltration in BALF of OVA-sensitised mice; type: in vivo, mouse; conditions: nebulised 3 micromolar
Method: FIG. 14. The calcilytic NPS89636 reduces inflammatory cell infiltration detected in the bronchioalveolar lavage fluid (BALF) from mice sensitized with OVA. 24 hours following the OVA sensitisation and nebulisation protocol described in detail in FIG. 13 in the presence of NS89636 (3 micromolar) or vehicle (0.3% DMSO), mice were killed and the BALF was collected by lavage. Cells from BALF were counted the same day using a haematocytometer. For differential cell count, BALF was concentrated by centrifugation 10 times, 100 microliters of the final solution was applied to a Cytospin 3 Shandon cell smearing system. The slides then were submerged into 1.5% Leisman stain in methanol for 6 min, then briefly washed in water twice, allowed to dry overnight, and the cells counted using 100× oil immersion objective. Data are presented as mean±S.E.M. Significant differences between vehicle and calcilytic are indicated, p<0.05, n=11.
Effect of the Calcilytic NPS 89636 on Inflammatory Cell Infiltration in the BALF of OVA-Sensitised Mice and LPS-Treated Guinea Pigs.
For the asthma model, OVA-sensitized mice were killed by a lethal overdose of sodium pentobarbitone (Euthatal), then using a cannula 1 ml of PBS was instilled into the lungs via an incision in the trachea. […]

[2] = Plasma ionised Ca2+ in BalbC mice after nebulised calcilytic treatment; type: in vivo, mouse
Method: Table 1. […] At the end of the experiment, bloods were collected via opening the carotid artery. Bloods were allowed to clot for 2-3 hours and spun down at 3000 g for 10 min at 4° C. Collected samples were analysed for measurements of Ca^2+o (performed by the Biochemistry department, University Hospital of Wales). […] Accordingly, the treatment is not detrimental in mammals.

[3] = Plasma ionised Ca2+ in guinea pigs after nebulised calcilytic treatment; type: in vivo, guinea pig
From the text: Table 2. […] Accordingly, the treatment is not detrimental in mammals.

[4] = 24 hours after nebulised calcilytic, single animals, hydrochloride

What does the source list for `CCc1ccc(CC(C)(C)NCC(O)COc2cc(-c3ccc(C(=O)O)cc3)ccc2C#N)c(F)c1.Cl` (stereo in doubt) [NPS89636, (S)-4′-cyano-3′-[3-[2-(4-ethyl-2-fluorophenyl)-1,1-dimethylethylamino]-2-hydroxy-propoxy]-biphenyl-4-carboxylic acid hydrochloride]?
Relaxation of acetylcholine-preconstricted intralobular bronchi [1]: mild relaxation; Effect on OVA-evoked inflammatory cell infiltration into the lung (BALF) (BalbC mice): reduced; Plasma ionised Ca++, Treatment (1 hour), individual animal ([2]; 1 hour after nebulised calcilytic, single animals, hydrochloride): 0.69 mM/L and 0.88 mM/L and 0.95 mM/L; Plasma ionised Ca++, Treatment (1 hour), Average ([2]; 1 hour, average of 3): 0.84 mM/L; Plasma ionised Ca++, Treatment (4 hours), individual animal ([2]; 4 hours after nebulised calcilytic, single animals, hydrochloride): 0.98 mM/L and 0.94 mM/L and 0.96 mM/L; Plasma ionised Ca++, Treatment (4 hours), Average ([2]; 4 hours, average of 3): 0.96 mM/L; Plasma ionised Ca++, Treatment (24 hours), individual animal [2, 4]: 1.09 mM/L and 1.1 mM/L and 0.93 mM/L; Plasma ionised Ca++, Treatment (24 hours), Average ([2]; 24 hours, average of 3): 1.04 mM/L; Plasma ionised Ca++, Treatment (24 hours), individual animal [3, 4]: 1.55 mM/L (2×) and 1.54 mM/L and 1.77 mM/L and 1.58 mM/L and 1.2 mM/L; Plasma ionised Ca++, Treatment (24 hours), Average ([3]; 24 hours, average of 6): 1.53 mM/L
